Data set [1] in a line: Compound was evaluated for the half life period after oral administration in conscious dog. The data set is classed as ADME, organism-based, Canis lupus familiaris. Conditions: in vivo.
Data set [2] in a line: Oral bioavailability in dog (conscious). The following applies: in vivo. The data set is classed as ADME, organism-based, Canis lupus familiaris.
The species named for a further data set is Canis familiaris. Put plainly: Effective dose was evaluated for gastrointestinal motor stimulating activity in dog. The class given is functional. The following applies: Canis lupus familiaris.
For a further data set, the species on record is Oryctolagus cuniculus. Put plainly: In vitro smooth muscle contractility using isolated rabbit duodenum. The data set is classed as functional, Muscle tissue.

In general, half-life refers to the time needed for the level to fall by half in the phase considered. Read a high half-life as slow decline. The term bioavailability denotes the share of a dose that reaches the circulation, judged against a reference dose that is usually intravenous. Low readings indicate little systemic uptake, high ones much systemic uptake. What is called ED50 is the midpoint of the dose-response relation. Read a low ED50 as an effect at a small dose. In the case of `CC[C@H]1NC(=O)[C@H](C)[C@@H](O[C@H]2C[C@@](C)(OC)C[C@H](C)O2)[C@H](C)[C@@H](O[C@@H]2O[C@H](C)C[C@H](N(C)C(C)C)[C@H]2O)[C@@]2(C)C[C@@H](C)[C@@H](O2)[C@H](C)[C@@H](O)[C@]1(C)O`, in data set [1], the half-life was 3.8 h. In data set [2], this compound came in with a bioavailability of 60.5%. Besides, the 50% effect level in the data set filed under Canis familiaris (ED50) was put at a dose of 0.036 mg/kg. The same compound gave a pED50 in the data set listed under Oryctolagus cuniculus of 8.
The compound `CC[C@H]1NC(=O)[C@H](C)[C@@H](O[C@H]2C[C@@](C)(OC)C[C@H](C)O2)[C@H](C)[C@@H](O[C@@H]2O[C@H](C)C[C@H](NC)[C@H]2O)[C@@]2(C)C[C@@H](C)[C@@H](O2)[C@H](C)[C@@H](O)[C@]1(C)O` had a pED50 in the data set filed under Oryctolagus cuniculus of 7.25.
Same read-out and setting: the figure for `CC[C@H]1OC(=O)[C@H](C)[C@@H](O[C@H]2C[C@@](C)(OC)C[C@H](C)O2)[C@H](C)[C@@H](O[C@@H]2O[C@H](C)C[C@H](N(C)CC)[C@H]2O)[C@@]2(C)CC(C)=C(O2)[C@H](C)[C@@H](O)[C@H]1C` [ALEMCINAL] is 7.22; for `CC[C@H]1NC(=O)[C@H](C)[C@@H](O[C@H]2C[C@@](C)(OC)C[C@H](C)O2)[C@H](C)[C@@H](O[C@@H]2O[C@H](C)C[C@H](N(C)CCF)[C@H]2O)[C@@]2(C)C[C@@H](C)[C@@H](O2)[C@H](C)[C@@H](O)[C@]1(C)O` it is 6.3.
Same read-out and setting: for `CC[C@H]1OC(=O)[C@H](C)[C@@H](O[C@H]2C[C@@](C)(OC)[C@@H](O)[C@H](C)O2)[C@H](C)[C@@H](O[C@@H]2O[C@H](C)C[C@H](N(C)C)[C@H]2O)[C@](C)(O)C[C@@H](C)C(=O)[C@H](C)[C@@H](O)[C@]1(C)O` [ERYTHROMYCIN] the value was 5.85; for `CC[C@H]1NC(=O)[C@H](C)[C@@H](O[C@H]2C[C@@](C)(OC)C[C@H](C)O2)[C@H](C)[C@@H](O[C@@H]2O[C@H](C)C[C@H](N(C)CCO)[C@H]2O)[C@@]2(C)C[C@@H](C)[C@@H](O2)[C@H](C)[C@@H](O)[C@]1(C)O`, 6.6; for `CC[C@H]1NC(=O)[C@H](C)[C@@H](O[C@H]2C[C@@](C)(OC)C[C@H](C)O2)[C@H](C)[C@@H](O[C@@H]2O[C@H](C)C[C@H](N(C)CC(C)C)[C@H]2O)[C@@]2(C)C[C@@H](C)[C@@H](O2)[C@H](C)[C@@H](O)[C@]1(C)O`, 6.88.
`CC[C@@H](O)[C@@](C)(O)C1OC(=O)[C@@H](C)[C@H](OC2C[C@@](C)(OC)C[C@H](C)O2)[C@H](C)[C@@H](O[C@@H]2O[C@H](C)C[C@H](N(C)C)[C@H]2O)[C@@H](C)[C@H]2O[C@H]([C@@H]2C)[C@@H]1C` (some centres undefined) came in with a pED50 in the data set listed under Oryctolagus cuniculus of 4.35.
Same read-out and setting: for `CC[C@H]1NC(=O)[C@H](C)[C@@H](O[C@H]2C[C@@](C)(OC)C[C@H](C)O2)[C@H](C)[C@@H](O[C@@H]2O[C@H](C)C[C@H](N(C)CC(C)O)[C@H]2O)[C@@]2(C)C[C@@H](C)[C@@H](O2)[C@H](C)[C@@H](O)[C@]1(C)O` (some centres undefined) the value was 6.6.
As to `CC[C@H]1NC(=O)[C@H](C)[C@@H](O[C@H]2C[C@@](C)(OC)C[C@H](C)O2)[C@H](C)[C@@H](O[C@@H]2O[C@H](C)C[C@H](N(C)C)[C@H]2O)[C@@]2(C)C[C@@H](C)[C@@H](O2)[C@H](C)[C@@H](O)[C@]1(C)O`, the half-life in data set [1] is 3.3 h. The bioavailability in data set [2] turned out to be 40%. The same compound registered a pED50 in the data set listed under Oryctolagus cuniculus of 7.5.
In the case of `CC[C@H]1NC(=O)[C@H](C)[C@@H](O[C@H]2C[C@@](C)(OC)C[C@H](C)O2)[C@H](C)[C@@H](O[C@@H]2O[C@H](C)C[C@H](N(C)CC)[C@H]2O)[C@@]2(C)C[C@@H](C)[C@@H](O2)[C@H](C)[C@@H](O)[C@]1(C)O`, the pED50 in the data set listed under Oryctolagus cuniculus was 7.11.
For the compound `CC[C@H]1OC(=O)[C@H](C)[C@@H](O[C@H]2C[C@@](C)(OC)C[C@H](C)O2)[C@H](C)[C@@H](O[C@@H]2O[C@H](C)C[C@H](N(C)C)[C@H]2O)[C@@]2(C)C[C@@H](C)[C@@H](O2)[C@H](C)[C@@H](O)[C@]1(C)O`, the half-life in data set [1] is 4 h. Moreover, the bioavailability in data set [2] came out at 5%. The same compound returned a pED50 in the data set listed under Oryctolagus cuniculus of 7.8.

(Values after ChEMBL document CHEMBL1131560, “Preparation of 9-deoxo-4"-deoxy-6,9-epoxyerythromycin lactams "motilactides": potent and orally active prokinetic agents” (Bioorg Med Chem Lett, 1998).)
